In ChEMBL document CHEMBL5131375, “Recent Developments in the Use of Kinase Inhibitors for Management of Viral Infections” (J Med Chem, 2022):

Assays:
[1] = Cytotoxicity against human A549 cells; assay type: toxicity, cell-based
[2] = test system: Influenza A virus; experiment: microbe, parasite or virus in culture; assay type: functional, organism-based; conditions: H3N2
[3] = Cytotoxicity against HFL1 cells; assay type: toxicity, cell-based; conditions: human
[4] = test system: Human alphaherpesvirus 1; experiment: microbe, parasite or virus in culture; assay type: functional, organism-based
[5] = test system: Human alphaherpesvirus 1; experiment: Antiviral activity against HSV-1 in HFL1 cells incubated for 24 hrs; assay type: functional, organism-based; conditions: Human alphaherpesvirus 1, HFL1, 24 h
[6] = test system: Influenza A virus; experiment: Antiviral actiivty against Influenza A (A/Regensburg/D6/2009 (H1N1)) infected in human A549 cells; assay type: functional, organism-based
[7] = target: Receptor tyrosine-protein kinase erbB-2 (Homo sapiens, UniProt P04626); experiment: Inhibition of HER2/ErbB-2 (unknown origin)
[8] = test system: Influenza A virus; experiment: microbe, parasite or virus in culture; assay type: functional, organism-based
[9] = test system: Influenza A virus; experiment: Antiviral activity against influenza A virus infected in human A549 cells assessed as inhibition of viral replication at 10 uM relative to control; assay type: functional; parameters: scale not given: the % may be the effect or the level left
[10] = test system: Influenza A virus; experiment: microbe, parasite or virus in culture; assay type: functional, organism-based; conditions: pdmH1N1
[11] = test system: Influenza A virus; experiment: Antiviral activity against influenza A virus HN79; assay type: functional, organism-based
[12] = test system: Human alphaherpesvirus 1; experiment: Antiviral activity against HSV-1 at 10 uM relative to control; assay type: functional
[13] = test system: Lassa virus; experiment: microbe, parasite or virus in culture; conditions: Mammarenavirus lassaense
[14] = test system: Ebolavirus; experiment: microbe, parasite or virus in culture; conditions: Orthoebolavirus
[15] = test system: Ebolavirus; experiment: microbe, parasite or virus in culture; assay type: functional, organism-based; conditions: Orthoebolavirus
[16] = test system: Vesicular stomatitis virus; experiment: microbe, parasite or virus in culture
[17] = test system: Lassa virus; experiment: microbe, parasite or virus in culture; conditions: Mammarenavirus lassaense, A549
[18] = test system: Marburgvirus; experiment: microbe, parasite or virus in culture; conditions: Orthomarburgvirus
[19] = test system: Ebolavirus; experiment: microbe, parasite or virus in culture; conditions: Orthoebolavirus; remark: listed apart in the source
[20] = in vitro; conditions: chlorocebus sabaeus, vero
[21] = test system: Lassa virus; experiment: microbe, parasite or virus in culture; conditions: Mammarenavirus lassaense; remark: listed apart in the source
[22] = test system: Marburgvirus; experiment: microbe, parasite or virus in culture; assay type: functional, organism-based; conditions: Orthomarburgvirus
[23] = test system: Ebolavirus; experiment: microbe, parasite or virus in culture; conditions: Orthoebolavirus, Huh-7
[24] = test system: SARS-CoV-2; experiment: microbe, parasite or virus in culture; assay type: functional, organism-based, Vero E6; conditions: Severe acute respiratory syndrome coronavirus 2, Vero C1008
[25] = test system: SARS-CoV-2; experiment: microbe, parasite or virus in culture; assay type: functional, organism-based; conditions: Severe acute respiratory syndrome coronavirus 2, Huh-7
[26] = test system: Influenza A virus; experiment: microbe, parasite or virus in culture; assay type: functional, organism-based; conditions: H1N1pdm09
[27] = target: Janus Kinase (JAK) (Homo sapiens, UniProt P52333+P23458+O60674+P29597); assay type: protein assay
[28] = test system: Hepatitis C virus; experiment: microbe, parasite or virus in culture
[29] = in vitro; conditions: human
[30] = test system: Hepatitis C virus; experiment: microbe, parasite or virus in culture; remark: listed apart in the source
[31] = test system: SARS-CoV-2; experiment: microbe, parasite or virus in culture; assay type: functional, organism-based; conditions: Severe acute respiratory syndrome coronavirus 2
[32] = test system: SARS-CoV-2; experiment: microbe, parasite or virus in culture; assay type: functional, organism-based; conditions: Severe acute respiratory syndrome coronavirus 2; remark: listed apart in the source
[33] = test system: Vero C1008; experiment: Cytotoxicity against African green monkey Vero E6 cells at 250 nM; assay type: toxicity, cell-based; conditions: chlorocebus sabaeus, vero c1008, 0.25 µM
[34] = target: Tyrosine-protein kinase JAK2 (Homo sapiens, UniProt O60674)
[35] = in vitro; conditions: human, huh7.5.1
[36] = test system: Chikungunya virus; experiment: microbe, parasite or virus in culture; assay type: functional, organism-based
[37] = test system: Human betaherpesvirus 5; experiment: Antiviral activity against HCMV Merlin (RCMV 1111) infected in HFF cells incubated for 96 hrs; assay type: functional, organism-based; conditions: Human betaherpesvirus 5, Merlin (RCMV 1111)
[38] = test system: Human betaherpesvirus 5; experiment: microbe, parasite or virus in culture; assay type: functional, organism-based
[39] = test system: Human betaherpesvirus 5; experiment: Antiviral activity against HCMV AD169 infected in HFF cells incubated for 96 hrs; assay type: functional, organism-based; conditions: Human betaherpesvirus 5, AD169, HFF

Chain of Receptor tyrosine-protein kinase erbB-2 (P04626 whole entry): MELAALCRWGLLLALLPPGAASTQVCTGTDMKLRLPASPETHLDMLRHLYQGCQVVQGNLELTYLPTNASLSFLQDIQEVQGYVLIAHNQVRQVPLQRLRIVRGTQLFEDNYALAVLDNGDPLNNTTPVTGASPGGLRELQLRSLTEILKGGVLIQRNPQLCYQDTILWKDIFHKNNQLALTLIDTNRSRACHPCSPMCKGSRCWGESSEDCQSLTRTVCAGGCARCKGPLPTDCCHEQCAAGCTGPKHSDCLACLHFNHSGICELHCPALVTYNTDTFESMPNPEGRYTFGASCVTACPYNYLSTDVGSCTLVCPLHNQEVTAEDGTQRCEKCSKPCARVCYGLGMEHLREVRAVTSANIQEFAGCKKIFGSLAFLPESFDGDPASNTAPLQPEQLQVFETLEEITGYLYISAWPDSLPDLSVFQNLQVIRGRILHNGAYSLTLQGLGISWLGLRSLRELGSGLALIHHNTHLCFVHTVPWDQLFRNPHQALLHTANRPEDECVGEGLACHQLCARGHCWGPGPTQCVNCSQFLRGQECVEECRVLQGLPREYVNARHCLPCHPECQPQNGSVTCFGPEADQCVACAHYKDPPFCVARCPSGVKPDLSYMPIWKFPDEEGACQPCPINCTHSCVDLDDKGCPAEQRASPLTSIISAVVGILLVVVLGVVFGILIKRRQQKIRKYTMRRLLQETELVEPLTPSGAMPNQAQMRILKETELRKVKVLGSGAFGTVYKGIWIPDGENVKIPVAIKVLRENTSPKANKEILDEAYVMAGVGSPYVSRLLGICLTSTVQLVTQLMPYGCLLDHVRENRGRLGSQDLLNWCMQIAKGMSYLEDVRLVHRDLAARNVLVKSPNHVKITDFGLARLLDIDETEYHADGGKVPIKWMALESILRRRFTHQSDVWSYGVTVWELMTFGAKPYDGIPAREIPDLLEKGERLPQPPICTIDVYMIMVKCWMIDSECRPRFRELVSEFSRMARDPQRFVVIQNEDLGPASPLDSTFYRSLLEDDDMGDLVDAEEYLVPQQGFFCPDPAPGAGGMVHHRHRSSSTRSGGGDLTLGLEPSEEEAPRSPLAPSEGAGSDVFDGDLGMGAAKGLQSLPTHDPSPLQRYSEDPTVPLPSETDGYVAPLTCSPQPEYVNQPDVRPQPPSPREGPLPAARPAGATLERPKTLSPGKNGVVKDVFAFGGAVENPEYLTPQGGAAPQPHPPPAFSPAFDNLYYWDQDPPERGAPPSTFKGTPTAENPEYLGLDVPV
Chain of Tyrosine-protein kinase JAK2 (O60674 whole entry): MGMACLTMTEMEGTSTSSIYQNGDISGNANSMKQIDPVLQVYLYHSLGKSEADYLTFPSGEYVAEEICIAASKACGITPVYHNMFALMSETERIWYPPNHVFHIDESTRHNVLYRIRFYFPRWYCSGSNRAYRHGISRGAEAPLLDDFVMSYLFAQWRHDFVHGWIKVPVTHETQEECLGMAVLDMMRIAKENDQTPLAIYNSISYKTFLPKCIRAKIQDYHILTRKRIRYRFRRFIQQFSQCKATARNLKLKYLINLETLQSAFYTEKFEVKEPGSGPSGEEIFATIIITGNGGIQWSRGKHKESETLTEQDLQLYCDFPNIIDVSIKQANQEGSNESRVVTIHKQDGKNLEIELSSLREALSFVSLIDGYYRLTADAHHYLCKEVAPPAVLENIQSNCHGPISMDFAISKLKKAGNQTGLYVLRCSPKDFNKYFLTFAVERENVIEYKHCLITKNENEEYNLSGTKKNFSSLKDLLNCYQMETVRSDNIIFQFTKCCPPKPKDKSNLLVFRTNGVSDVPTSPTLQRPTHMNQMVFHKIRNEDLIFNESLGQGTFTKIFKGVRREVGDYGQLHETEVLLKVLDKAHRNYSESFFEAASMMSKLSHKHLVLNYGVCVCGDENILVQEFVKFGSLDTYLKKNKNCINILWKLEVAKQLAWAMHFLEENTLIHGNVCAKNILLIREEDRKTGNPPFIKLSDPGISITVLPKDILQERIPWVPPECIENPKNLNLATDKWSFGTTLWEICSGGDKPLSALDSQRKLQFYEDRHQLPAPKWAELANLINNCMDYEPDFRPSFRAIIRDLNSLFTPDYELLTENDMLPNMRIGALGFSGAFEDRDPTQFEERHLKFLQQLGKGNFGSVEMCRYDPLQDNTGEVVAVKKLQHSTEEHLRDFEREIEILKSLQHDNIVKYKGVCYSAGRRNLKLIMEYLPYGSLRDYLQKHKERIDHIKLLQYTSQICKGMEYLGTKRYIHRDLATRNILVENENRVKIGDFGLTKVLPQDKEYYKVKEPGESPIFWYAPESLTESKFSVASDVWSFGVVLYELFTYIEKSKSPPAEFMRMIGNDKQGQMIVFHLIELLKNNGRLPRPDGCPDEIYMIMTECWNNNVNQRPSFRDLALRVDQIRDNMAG

**Q.** With `CNC(=O)c1cc(Oc2ccc(NC(=O)Nc3ccc(Cl)c(C(F)(F)F)c3)c(F)c2)ccn1` [REGORAFENIB] as the compound, how does the CC50 [1] read?
**A.** 14.2 µM

**Q.** What about the EC50 [2] of the same compound?
**A.** 0.89 µM

**Q.** For `CC1Oc2ccc(NC(=O)[C@@H](Cc3c[nH]c4ccccc34)NC(=O)c3ccc(F)cc3)cc2NC1=O` (some centres not stated), which CC50 [3] is on record?
**A.** 1410 µM

**Q.** And the EC50 [4]?
**A.** 29 µM

**Q.** And the IC50 [5]?
**A.** 29 µM

**Q.** For `O=C(NOCC1CC1)c1ccc(F)c(F)c1Nc1ccc(I)cc1Cl` [CI-1040], which EC50 [6] is on record?
**A.** 0.026 µM

**Q.** What about the CC50 [1] of the same compound?
**A.** 312 µM

**Q.** With `CC(C)(C)c1cc(/C=C(\C#N)C(N)=S)cc(C(C)(C)C)c1O` [TYRPHOSTIN AG 879] as the compound, how does the CC50 [1] read?
**A.** > 81 µM

**Q.** And the IC50 [7]?
**A.** 1 µM

**Q.** And the IC50 [8]?
**A.** 10 µM

**Q.** What about the Activity [9] of the same compound?
**A.** 50%

**Q.** Which CC50 [1] does the source give for `Cc1ccc([N+](=O)[O-])cc1S(=O)(=O)N(C)/N=C/c1cnc2ccc(Br)cn12` here?
**A.** > 100 µM

**Q.** What about the IC50 [2] of the same compound?
**A.** 0.04 µM

**Q.** And the IC50 [10]?
**A.** 0.04 µM

**Q.** And the IC50 [8]?
**A.** 0.04 µM

**Q.** And the IC50 [11]?
**A.** 0.04 µM

**Q.** Which CC50 [1] does the source give for `O=C(NOC[C@H](O)CO)c1ccc(F)c(F)c1Nc1ccc(I)cc1F` [MIRDAMETINIB] here?
**A.** > 100 µM

**Q.** For `O=C(Nc1c[nH]nc1-c1nc2ccc(CN3CCOCC3)cc2[nH]1)NC1CC1` [AT-9283], which Activity [12] is on record?
**A.** 70%

**Q.** Which EC50 [13] does the source give for `CN1CCC(Nc2ncc3ncnc(Nc4ccc(F)c(Cl)c4)c3n2)CC1` [FALNIDAMOL] here?
**A.** 7.5 µM

**Q.** What about the EC50 [14] of the same compound?
**A.** 1.6 µM

**Q.** What about the EC50 [15] of the same compound?
**A.** 1.1 µM

**Q.** What about the EC50 [16] of the same compound?
**A.** 30.9 µM

**Q.** What about the EC50 [17] of the same compound?
**A.** 3.2 µM

**Q.** What about the EC50 [18] of the same compound?
**A.** 1.8 µM

**Q.** What about the EC50 [19] of the same compound?
**A.** 1.2 µM

**Q.** And the CC50 [20]?
**A.** 29.1 µM

**Q.** What about the EC50 [21] of the same compound?
**A.** 3.2 µM

**Q.** What about the EC50 [22] of the same compound?
**A.** 1.8 µM

**Q.** And the EC50 [23]?
**A.** 1.1 µM

**Q.** With `Cc1cc(Nc2cc3ncccc3c(N[C@@H]3C[C@H]4CC[C@@H](C3)N4CCC#N)n2)n[nH]1` [IZENCITINIB] as the compound, how does the EC50 [24] read?
**A.** 0.02 µM

**Q.** What about the IC50 [25] of the same compound?
**A.** 0.02 µM

**Q.** Which results are given for `Cc1cc(C(=O)NOCCO)c(Nc2ccc(I)cc2F)n(C)c1=O` [AZD-8330]?
**A.** IC50 [26]: 0.04 µM; CC50 [1]: > 100 µM

**Q.** Which IC50 [27] does the source give for `N#CCC1CCN(c2nc(Nc3ccc(N4CCC(O)CC4)cc3)c3c(=O)[nH]ncc3n2)CC1` [GUSACITINIB] here?
**A.** 0.005 µM

**Q.** Which EC50 [28] does the source give for `Cc1nc2c(NCc3cccc(S(C)(=O)=O)c3)nccn2c1-c1ccc(O)c(F)c1` here?
**A.** 0.1 µM

**Q.** What about the CC50 ([29]; huh-7) of the same compound?
**A.** > 30 µM

**Q.** What about the EC50 [30] of the same compound?
**A.** 0.1 µM

**Q.** Which IC50 [31] does the source give for `CNCc1ccc(-c2cc(-c3nc(-c4ccc(S(=O)(=O)C(C)C)cc4)cnc3N)on2)cc1` [BERZOSERTIB] here?
**A.** 0.00428 µM

**Q.** What about the IC50 [32] of the same compound?
**A.** 0.00428 µM

**Q.** And the Activity [33]?
**A.** Non-Toxic

**Q.** Which EC50 [32] does the source give for `CNC(=O)c1cccc(-c2ccc3c(N4CCOC[C@@H]4C)nc(N4CCOC[C@@H]4C)nc3n2)c1` [VISTUSERTIB] here?
**A.** 0.0159 µM

**Q.** And the Activity [33]?
**A.** Non-Toxic

**Q.** Which IC50 [34] does the source give for `C[C@H](Nc1cc(-c2cnn(C)c2)cc(Nc2cnccn2)n1)c1ccc(F)cc1` [NS-018] here?
**A.** 0.00027 µM

**Q.** For `Cc1cc(-c2cc(C(=O)Nc3nc(CN4CCCC(C)C4)cs3)c3c(C)noc3n2)c(C)o1` (configuration not stated), which CC50 [3] is on record?
**A.** 159 µM

**Q.** And the EC50 [4]?
**A.** 32 µM

**Q.** And the IC50 [5]?
**A.** 29 µM

**Q.** For `COc1ccc(-c2cnc3c(OC(C)C)snc3c2)cc1OC`, which CC50 [35] is on record?
**A.** > 10 µM

**Q.** What does the source list for `CC(C)c1ccc(NC(=O)c2csc(C(O)C(C)C)n2)cc1` (configuration not stated)?
**A.** EC50 [36]: 2.2 µM; CC50 ([29]; Huh-7 cells): > 50 µM

**Q.** Which results are given for `COc1cc[nH]c1/C=C1\C(=O)Nc2ccc([N+](=O)[O-])c(N3CC[C@@H](O)C3)c21`?
**A.** EC50 [37]: 1.3 µM; EC50 [38]: 0.01 µM; EC50 [39]: 0.01 µM
